In brackets after ≈: the same amount, converted by molar mass.

The target of the assay is intestinal α-glucosidase. As to the kind of experiment: sucrose hydrolysis, glucose oxidase-peroxidase, absorbance […] nm. Format: biochemical. Conditions: phosphate buffer pH 7.5, 20 min pre-incubation at 37 °C.

For `C[C@H]1O[C@H](O[C@H]2[C@H](O)[C@@H](O)[C@@H](O[C@H]3[C@H](O)[C@@H](O)C(O)O[C@@H]3CO)O[C@@H]2CO)[C@H](O)[C@@H](O)[C@@H]1N[C@H]1C=C(CO)[C@@H](O)[C@H](O)[C@H]1O` (stereo partly shown) [acarbose], the IC50 (usually the concentration that gives 50% inhibition) was found to be 52.5 ± 2.67 µg/mL (≈ 81.3 µM).

The values are drawn from paper PMC10492212 (Journal of Ayurveda and Integrative Medicine, 2023).
